In ChEMBL document CHEMBL5053510, “Discovery of AS-1763: A Potent, Selective, Noncovalent, and Orally Available Inhibitor of Bruton's Tyrosine Kinase” (J Med Chem, 2021):
Activity calls are given as the source filed them. No cut-off for these calls is given here.

What was measured:
[1] = MRT (0 to last) in mouse at 15 mg/kg, po; assay type: ADME, organism-based; conditions: in vivo
[2] = Plasma protein binding in rat; assay type: ADME, cell-free; conditions: read-out: PPB (converted)
[3] = target: Tyrosine-protein kinase BTK (Mus musculus) (UniProt P35991); assay: Inhibition of BTK in […] mouse blood assessed as reduction in BTK phosphorylation at Tyr223 residue at 15 mg/kg, po measured after 8 hrs; assay type: organism-based
[4] = Half life in mouse at 15 mg/kg, po; assay type: ADME, organism-based; conditions: in vivo
[5] = species on record: Mus musculus; assay: Toxicity in SCID mouse harboring human OCILY10 cells harboring BTK C481S mutant […] gene assessed as body weight loss; assay type: organism-based
[6] = target: Cytoplasmic tyrosine-protein kinase BMX (Homo sapiens, UniProt P51813); assay: Inhibition of human full-length BMX (1 to 675 residues) expressed in baculovirus expression system by mobility shift assay
[7] = target: Tyrosine-protein kinase BTK (Homo sapiens, UniProt Q06187); assay: Inhibition of human BTK-A using phosphorylated substrate in presence of ATP by microplate reader assay
[8] = Tmax in rat at 15 mg/kg, po; assay type: ADME, organism-based; conditions: in vivo
[9] = target: Tyrosine-protein kinase BTK (Mus musculus) (UniProt P35991); assay: Inhibition of BTK in […] mouse blood assessed as reduction in BTK phosphorylation at Tyr223 residue at 30 mg/kg, po measured after 8 hrs; assay type: organism-based
[10] = system: OCI-Ly10; assay: Antiproliferative activity against human OCILY10 cells assessed as reduction in cell proliferation measured after 96 hrs; assay type: functional, cell-based; conditions: OCI-Ly10, 96 h
[11] = Oral bioavailability in dog at 5 mg/kg; assay type: ADME, organism-based, Canis lupus familiaris; conditions: in vivo
[12] = Oral bioavailability in rat at 15 mg/kg; assay type: ADME, organism-based; conditions: in vivo
[13] = target: Tyrosine-protein kinase ITK/TSK (Homo sapiens) (UniProt Q08881); assay: Inhibition of human ITK (2 - 620 residues) expressed in baculovirus expression system at 0.3 uM by mobility shift assay
[14] = AUC (0 to last) in dog at 5 mg/kg, po; assay type: ADME, organism-based, Canis lupus familiaris; design: time 0 - last, dose 5 mg/kg, route po; conditions: in vivo
[15] = Metabolic stability in mouse hepatocytes assessed as Intrinsic clearance; assay type: ADME, cell-based, Hepatocyte
[16] = target: Epithelial discoidin domain-containing receptor 1 (Homo sapiens, UniProt Q08345); assay: Inhibition of human DDR1 (444 - 876 residues) expressed in baculovirus expression system by mobility shift assay
[17] = target: Cytochrome P450 2C19 (Homo sapiens, UniProt P33261); assay: Inhibition of CYP2C19 (unknown origin); assay type: ADME
[18] = target: Muscle, skeletal receptor tyrosine-protein kinase (Homo sapiens, UniProt O15146); assay: Inhibition of human MUSK expressed in baculovirus expression system by mobility shift assay
[19] = target: Proto-oncogene tyrosine-protein kinase Src (Homo sapiens, UniProt P12931); assay: Inhibition of human full length SRC expressed in baculovirus expression system at 0.3 uM by mobility shift assay
[20] = Initial plasma concentration in dog at 5 mg/kg, po; assay type: ADME, organism-based, Canis lupus familiaris; conditions: in vivo
[21] = target: Cytoplasmic tyrosine-protein kinase BMX (Homo sapiens) (UniProt P51813); assay: Inhibition of human full-length BMX (1 to 675 residues) expressed in baculovirus expression system at 0.3 uM by mobility shift assay
[22] = target: Tyrosine-protein kinase ITK/TSK (Homo sapiens, UniProt Q08881); assay: Inhibition of human ITK (2 - 620 residues) expressed in baculovirus expression system by mobility shift assay
[23] = AUC (0 to last) in mouse at 2 mg/kg, iv; assay type: ADME, organism-based; design: time 0 - last, dose 2 mg/kg, route iv; conditions: in vivo
[24] = target: Cytochrome P450 2B6 (Homo sapiens, UniProt P20813); assay: Inhibition of CYP2B6 (unknown origin); assay type: ADME
[25] = system: OCI-Ly10; assay: Antitumor activity against human OCILY10 cells xenografted in SCID mouse assessed as tumor growth inhibition at 6 mg/kg, po bid measured after 63 days; assay type: functional; conditions: OCI-Ly10, 1512 h, time 63 day, read-out: TGI
[26] = Volume of distribution at steady state in mouse at 2 mg/kg, iv; assay type: ADME, organism-based; conditions: in vivo, read-out: Vdss
[27] = target: Tyrosine-protein kinase BTK (Homo sapiens, UniProt Q06187, C481S); assay: Inhibition of BTK C481S mutant (unknown origin) in presence of 1 mM ATP by microplate reader assay
Tyrosine-protein kinase BTK (Homo sapiens, UniProt Q06187, C481S), sequence (Q06187 2-659 C481S limits assumed): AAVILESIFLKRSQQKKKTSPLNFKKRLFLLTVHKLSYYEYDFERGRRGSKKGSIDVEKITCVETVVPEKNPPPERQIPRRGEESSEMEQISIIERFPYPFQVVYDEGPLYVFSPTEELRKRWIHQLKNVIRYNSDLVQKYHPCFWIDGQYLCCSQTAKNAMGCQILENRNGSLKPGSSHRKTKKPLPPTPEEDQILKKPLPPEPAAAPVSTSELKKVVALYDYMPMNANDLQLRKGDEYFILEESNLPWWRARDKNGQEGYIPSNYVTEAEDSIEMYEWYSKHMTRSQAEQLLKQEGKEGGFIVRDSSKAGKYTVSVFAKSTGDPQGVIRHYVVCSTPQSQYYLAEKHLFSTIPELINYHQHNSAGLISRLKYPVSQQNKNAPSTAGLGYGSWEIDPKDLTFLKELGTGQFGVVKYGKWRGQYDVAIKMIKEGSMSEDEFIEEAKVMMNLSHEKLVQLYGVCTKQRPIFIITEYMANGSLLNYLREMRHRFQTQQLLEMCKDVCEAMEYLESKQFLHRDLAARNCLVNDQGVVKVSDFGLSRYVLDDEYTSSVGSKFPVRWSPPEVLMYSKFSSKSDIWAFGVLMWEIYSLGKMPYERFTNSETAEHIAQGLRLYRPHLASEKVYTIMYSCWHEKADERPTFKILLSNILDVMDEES

Tyrosine-protein kinase BTK (Mus musculus), sequence (P35991 whole entry): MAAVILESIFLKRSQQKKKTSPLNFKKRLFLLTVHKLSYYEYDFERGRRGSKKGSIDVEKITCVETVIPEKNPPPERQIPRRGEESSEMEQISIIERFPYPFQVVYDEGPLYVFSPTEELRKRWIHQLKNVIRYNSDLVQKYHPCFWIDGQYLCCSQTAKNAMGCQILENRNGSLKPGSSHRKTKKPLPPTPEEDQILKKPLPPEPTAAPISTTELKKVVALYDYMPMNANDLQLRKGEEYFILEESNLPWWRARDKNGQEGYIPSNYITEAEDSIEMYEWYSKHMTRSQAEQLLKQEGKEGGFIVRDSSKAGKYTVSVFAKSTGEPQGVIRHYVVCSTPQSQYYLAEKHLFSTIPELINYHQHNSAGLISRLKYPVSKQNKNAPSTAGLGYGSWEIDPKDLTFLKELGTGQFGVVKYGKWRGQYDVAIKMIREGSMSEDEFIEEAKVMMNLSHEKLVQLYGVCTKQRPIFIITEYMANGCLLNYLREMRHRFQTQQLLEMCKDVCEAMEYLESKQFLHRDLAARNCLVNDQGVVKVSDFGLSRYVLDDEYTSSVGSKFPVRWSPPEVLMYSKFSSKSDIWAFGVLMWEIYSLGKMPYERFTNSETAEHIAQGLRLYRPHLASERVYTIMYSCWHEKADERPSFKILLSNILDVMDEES
Cytochrome P450 2C19, sequence (P33261 whole entry): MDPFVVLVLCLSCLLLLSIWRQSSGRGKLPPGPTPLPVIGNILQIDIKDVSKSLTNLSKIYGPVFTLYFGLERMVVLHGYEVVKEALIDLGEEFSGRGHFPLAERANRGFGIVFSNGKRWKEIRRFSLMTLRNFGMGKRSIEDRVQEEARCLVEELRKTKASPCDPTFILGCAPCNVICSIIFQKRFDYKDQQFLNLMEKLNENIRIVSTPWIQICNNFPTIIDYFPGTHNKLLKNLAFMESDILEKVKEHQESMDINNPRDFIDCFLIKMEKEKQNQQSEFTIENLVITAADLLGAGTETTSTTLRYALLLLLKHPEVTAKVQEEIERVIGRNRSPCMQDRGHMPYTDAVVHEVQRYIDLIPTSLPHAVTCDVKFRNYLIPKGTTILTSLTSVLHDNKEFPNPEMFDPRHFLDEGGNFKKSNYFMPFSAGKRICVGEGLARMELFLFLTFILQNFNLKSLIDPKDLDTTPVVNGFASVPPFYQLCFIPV
Tyrosine-protein kinase BTK (Homo sapiens, UniProt Q06187), sequence (Q06187 whole entry): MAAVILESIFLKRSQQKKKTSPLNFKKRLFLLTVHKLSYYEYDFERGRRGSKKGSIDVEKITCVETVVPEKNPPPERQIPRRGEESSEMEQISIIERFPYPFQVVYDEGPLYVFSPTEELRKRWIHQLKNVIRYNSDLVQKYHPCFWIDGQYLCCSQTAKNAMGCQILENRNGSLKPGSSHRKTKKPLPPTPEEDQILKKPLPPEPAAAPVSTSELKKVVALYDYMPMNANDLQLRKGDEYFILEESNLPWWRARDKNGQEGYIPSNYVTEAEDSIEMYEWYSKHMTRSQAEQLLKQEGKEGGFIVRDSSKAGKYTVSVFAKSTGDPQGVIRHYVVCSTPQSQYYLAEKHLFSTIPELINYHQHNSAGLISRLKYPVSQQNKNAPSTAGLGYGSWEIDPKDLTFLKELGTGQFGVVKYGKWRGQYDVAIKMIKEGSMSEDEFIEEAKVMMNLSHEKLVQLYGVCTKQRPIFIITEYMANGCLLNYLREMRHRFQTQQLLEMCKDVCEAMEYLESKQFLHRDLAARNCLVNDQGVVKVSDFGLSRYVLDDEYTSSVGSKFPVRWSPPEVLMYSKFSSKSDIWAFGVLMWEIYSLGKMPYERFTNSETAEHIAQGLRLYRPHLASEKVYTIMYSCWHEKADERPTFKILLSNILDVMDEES
Epithelial discoidin domain-containing receptor 1, sequence (Q08345 whole entry, the tested form may be a part): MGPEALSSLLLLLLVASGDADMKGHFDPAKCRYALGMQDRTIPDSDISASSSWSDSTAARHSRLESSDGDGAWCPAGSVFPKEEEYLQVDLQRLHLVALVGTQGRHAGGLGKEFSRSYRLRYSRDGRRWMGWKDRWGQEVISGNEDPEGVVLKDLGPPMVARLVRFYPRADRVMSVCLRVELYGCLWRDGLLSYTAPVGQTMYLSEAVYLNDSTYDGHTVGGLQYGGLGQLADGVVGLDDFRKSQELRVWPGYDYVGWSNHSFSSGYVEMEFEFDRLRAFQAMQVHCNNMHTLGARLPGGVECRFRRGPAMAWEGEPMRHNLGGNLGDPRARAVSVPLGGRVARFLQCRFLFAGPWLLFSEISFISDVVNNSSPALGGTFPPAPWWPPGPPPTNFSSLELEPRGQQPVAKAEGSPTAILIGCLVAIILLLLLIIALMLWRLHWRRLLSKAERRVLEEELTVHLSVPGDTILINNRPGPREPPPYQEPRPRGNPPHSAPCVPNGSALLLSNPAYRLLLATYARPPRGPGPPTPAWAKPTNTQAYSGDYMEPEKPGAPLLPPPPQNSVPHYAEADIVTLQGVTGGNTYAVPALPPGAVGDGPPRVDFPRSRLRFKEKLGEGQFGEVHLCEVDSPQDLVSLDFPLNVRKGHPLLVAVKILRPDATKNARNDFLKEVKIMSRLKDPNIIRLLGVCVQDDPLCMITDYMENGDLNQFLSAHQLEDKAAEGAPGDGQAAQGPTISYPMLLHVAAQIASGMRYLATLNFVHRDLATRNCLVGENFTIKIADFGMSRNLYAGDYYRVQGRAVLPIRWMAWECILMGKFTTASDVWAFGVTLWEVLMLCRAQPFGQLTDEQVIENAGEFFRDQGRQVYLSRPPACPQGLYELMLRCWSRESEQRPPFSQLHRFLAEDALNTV
Tyrosine-protein kinase ITK/TSK (Homo sapiens), sequence (Q08881 whole entry, the tested form may be a part): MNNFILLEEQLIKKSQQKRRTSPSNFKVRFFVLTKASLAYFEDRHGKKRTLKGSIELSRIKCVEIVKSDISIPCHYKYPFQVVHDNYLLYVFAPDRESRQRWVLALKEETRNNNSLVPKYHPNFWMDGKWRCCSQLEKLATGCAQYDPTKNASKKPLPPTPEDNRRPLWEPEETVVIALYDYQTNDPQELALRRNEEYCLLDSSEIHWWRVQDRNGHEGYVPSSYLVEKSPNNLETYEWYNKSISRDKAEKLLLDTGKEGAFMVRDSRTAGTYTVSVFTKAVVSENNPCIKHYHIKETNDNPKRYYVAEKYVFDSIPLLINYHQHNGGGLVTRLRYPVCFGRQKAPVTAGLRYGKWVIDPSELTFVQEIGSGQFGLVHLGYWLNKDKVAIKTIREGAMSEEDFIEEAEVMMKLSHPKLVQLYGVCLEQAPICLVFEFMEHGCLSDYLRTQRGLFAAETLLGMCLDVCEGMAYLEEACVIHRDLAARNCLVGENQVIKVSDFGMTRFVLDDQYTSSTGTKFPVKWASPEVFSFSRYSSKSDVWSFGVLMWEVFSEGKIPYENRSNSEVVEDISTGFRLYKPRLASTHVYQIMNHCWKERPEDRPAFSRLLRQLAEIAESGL
Tyrosine-protein kinase ITK/TSK, sequence (Q08881 whole entry, the tested form may be a part): as above
Proto-oncogene tyrosine-protein kinase Src, sequence (P12931 2-536 limits assumed): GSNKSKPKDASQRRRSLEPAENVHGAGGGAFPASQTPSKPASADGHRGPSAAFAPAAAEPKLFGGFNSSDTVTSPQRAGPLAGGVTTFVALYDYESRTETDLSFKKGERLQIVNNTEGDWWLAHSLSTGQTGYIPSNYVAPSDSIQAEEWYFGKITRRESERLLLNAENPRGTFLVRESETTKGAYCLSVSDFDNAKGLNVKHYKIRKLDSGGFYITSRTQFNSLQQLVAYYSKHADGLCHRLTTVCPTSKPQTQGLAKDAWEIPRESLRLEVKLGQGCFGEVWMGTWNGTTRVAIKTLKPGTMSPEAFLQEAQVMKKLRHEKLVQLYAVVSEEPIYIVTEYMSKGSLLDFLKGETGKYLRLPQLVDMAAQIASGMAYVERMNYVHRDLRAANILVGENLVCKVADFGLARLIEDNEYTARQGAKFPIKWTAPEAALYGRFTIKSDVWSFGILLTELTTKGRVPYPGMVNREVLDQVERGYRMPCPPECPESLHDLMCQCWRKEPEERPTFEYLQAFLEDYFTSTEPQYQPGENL

Nc1nc(-c2cccc(-n3ccc4cc(C5CC5)cc(F)c4c3=O)c2CO)c2cc(C3=CCN(C4COC4)CC3)[nH]c2n1 [MILREBRUTINIB]
MRT last [1]: 3.58 h | fraction unbound [2]: 0.012 | inhibition [3]: Active | half-life [4]: 2.25 h | Activity [5]: Non-Toxic | IC50 [6]: 8.49 nM | IC50 [7]: 0.85 nM | Tmax [8]: 2 h | inhibition [9]: Active | IC50 [10]: 2 nM | bioavailability [11]: 68.1% | bioavailability [12]: 15.9% | inhibition [13]: 78.8% | AUC(0-t) [14]: 2490 ng·h/mL | CLH [15]: 2.11 mL/min/g | IC50 [16]: 221 nM | IC50 [17]: > 10000 nM | IC50 [18]: 306 nM | inhibition [19]: 51.9% | C0 [20]: 896 ng/mL | inhibition [21]: 97.7% | IC50 [22]: 60.9 nM | AUC(0-t) [23]: 1750 ng·h/mL | IC50 [24]: > 10000 nM | inhibition in vivo at 6 mg/kg [25]: 74.5% | Vd [26]: 1.61 L/kg | IC50 [27]: 5.88 nM
